Measured values as given in patent publication US9290535B2, “Uridine-based gadolinium complex and MRI contrast agent including the same” (Korea University Researchand Business Foundation, priority 2011, dated 2016).

Legend:
[1] = clinical liver-specific contrast agents; cited from earlier work
[2] = Relaxivity measurements (r1, r2) in PBS solution; assay type: physicochemical; conditions: PBS solution, 36° C.
Experimental: Longitudinal and transverse relaxivities, r1 and r2, were measured at 20 MHz (0.47 T) and 60 MHz (1.41 T) at 36° C. on NMR (mq20 and mq60, Bruker, Germany) and animal MRI (Biospec 47/40, Bruker, Germany) systems. T1 and T2 relaxation times were measured with inversion recovery and spin-echo pulse sequences, respectively.
The relaxation efficiency of the newly synthesized amphiphilic MRI contrast agents according to the present invention was determined by measuring longitudinal relaxivity (r1) and transverse relaxivity (r2) at 20 MHZ (0.47 T) and 60 MHz (1.41 T) in phosphate buffered saline (PBS) solution at 36° C.

[3] = target: T1, human serum albumin (HSA) (Homo sapiens, UniProt P02768); test: Interaction with human serum albumin (relaxivity with HSA, binding constant); conditions: 36° C.; for Relaxivity r1^a (with HSA): 20 MHz (0.47 T), PBS solution with 0.65 mM HSA
T1 construct: purchased Sigma (Bornem, Belgium) A3782
T1 sequence (P02768 25-609): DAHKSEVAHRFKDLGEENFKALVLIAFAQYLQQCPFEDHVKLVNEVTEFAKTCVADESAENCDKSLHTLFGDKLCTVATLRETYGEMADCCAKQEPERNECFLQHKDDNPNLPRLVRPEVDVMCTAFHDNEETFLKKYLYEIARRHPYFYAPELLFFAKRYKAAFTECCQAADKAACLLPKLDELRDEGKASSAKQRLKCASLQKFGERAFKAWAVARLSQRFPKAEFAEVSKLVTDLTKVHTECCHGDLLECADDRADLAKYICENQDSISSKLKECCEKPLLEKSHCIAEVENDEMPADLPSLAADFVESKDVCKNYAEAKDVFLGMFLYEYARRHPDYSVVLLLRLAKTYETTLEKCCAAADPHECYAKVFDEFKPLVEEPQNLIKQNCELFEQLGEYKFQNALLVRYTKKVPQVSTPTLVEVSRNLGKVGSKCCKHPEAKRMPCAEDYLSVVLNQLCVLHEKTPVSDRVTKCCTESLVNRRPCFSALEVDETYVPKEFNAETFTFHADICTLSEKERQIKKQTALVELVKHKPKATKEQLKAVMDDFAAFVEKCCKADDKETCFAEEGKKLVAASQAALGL
Description: It is well known that non-covalent interaction of the contrast agent with human serum albumin (HSA) increases its circulation time in blood and slows down tubling rate, leading to greater contrast enhancement for blood vessel imaging. In this example, effective interaction between the newly synthesized contrast agents (CAs) and human serum albumin (HSA) were investigated.
Human serum albumin (HSA; Product No. A3782) was purchased from Sigma (Bornem, Belgium) and was used without further purification. HSA binding experiment was performed with 50 μM of the complexes LGd1-5 in PBS solution depending on the concentration of HSA from 0 to 4 mM at 20 MHz and 36° C.
The increment of R1/R1^0 with increasing aliphatic chain length is: LGd2>LGd3>LGd4>LGd5.
Furthermore, to know the non-covalent binding strength between HSA and the complex, a binding constant (Ka) of (3.34±0.28)×10^3 M^−1 for the complex LGd3 was determined using the theoretical equation reported in the reference (D. T. Schuhle, J. Schatz, S. Laurent, L. V. Elst, R. N. Muller, M. C. A. Stuart, J. A. Peters, Chem. Eur. J. 2009, 15, 3290). The relaxivity for the non-aggregate form of LGd3 (r1^f) was measured to be 18.5 mM^−1s^−1 (below CMC=50 μM; FIG. 10), while for adduct LGd3.HSA (r1^c), 41.0 mM^−1s^−1 at 36° C. and 20 MHz (0.47 T) in PBS solution. […] As a result, the complex LGd3 of the present invention could be retained in vivo for a longer time.

[4] = Dynamic light scattering (DLS) of micelles; assay type: physicochemical; conditions: FIGS. 6 to 9; for DLS average size of micelles: pH 7.4
[5] = Stability against transmetallation by Zn2+ (time evolution of proton relaxation rate); assay type: physicochemical; conditions: for Relaxivity retained after transmetallation: 2.5 mM complex with 2.5 mM ZnCl2 in PBS, after 70 h; for y0 of fit y0+A×exp(−t/C1) of proton relaxation rate during transmetallation: Zn(II) ions, PBS, 20 MHz (0.47 T), 36° C., steady state in about 70 h
Experimental: The stability of the gadolinium complex against various biologically active metal ions is very important in in vivo applications. Among them, only Zn^2+ can displace significant amounts of the Gd^3+ ion as concentration of Zn^2+ in blood is relatively high (55-125 μM/L). The stability of the complexes LGd1-4 against transmetallation by Zn^2+ was studied employing the method of others.
The time evolution of the ^1H longitudinal relaxivity (R1) of a 2.5 mM gadolinium complex with 2.5 mM ZnCl2 in PBS solution was measured. Stability of the amphiphilic complex LGd2 of the present invention was greater than that of the non-aggregated complex LGd1 (FIG. 13). After 70 h, the relaxivities were retained 30, 50, 21, and 12% for LGd1-4, respectively.

Relaxivity r1 ([2]; 20 MHz (0.47 T))	Relaxivity r1 ([2]; 60 MHz (1.41 T))	Relaxivity r1^a (with HSA) [3]	DLS PDI of micelles [4]	DLS average size of micelles [4]	Relaxivity retained after transmetallation [5]	y0 of fit y0+A×exp(−t/C1) of proton relaxation rate during transmetallation [5]	Effective interaction with HSA (R1/R1^0) ([3]; 50 μM complex, HSA below 1.0 mM, 20 MHz)	Compound	Hepatic excretion [1]	Renal excretion [1]
–	–	–	–	–	–	–	–	CNC[C@H](O)[C@@H](O)[C@H](O)[C@H](O)CO.CNC[C@H](O)[C@@H](O)[C@H](O)[C@H](O)CO.O=C([O-])CN(CCN(CC(=O)[O-])CC(=O)O)CCN(CC(=O)O)C(COCc1ccccc1)C(=O)[O-].[Gd+3] (stereo not shown) [Multihance®, Gd-BOPTA]	4%	96%
27.10 mM⁻¹ s⁻¹	16.50 mM⁻¹ s⁻¹	38.50 mM⁻¹ s⁻¹	1.12	50.16 nm	12%	0.12	–	CCCCCCCCCCCC(=O)O[C@@H]1[C@H](OC(=O)CCCCCCCCCCC)[C@@H](CN(CCN(CC(=O)[O-])CC(=O)[O-])CCN(CC(=O)[O-])CC(=O)[O-])O[C@H]1n1ccc(=O)[nH]c1=O.[Gd+3] [LGd4]	–	–
20.10 mM⁻¹ s⁻¹	17.20 mM⁻¹ s⁻¹	26.40 mM⁻¹ s⁻¹	1.14	24.74 nm	–	–	–	CCCCCCCCCCCCCC(=O)O[C@@H]1[C@H](OC(=O)CCCCCCCCCCCCC)[C@@H](CN(CCN(CC(=O)[O-])CC(=O)[O-])CCN(CC(=O)[O-])CC(=O)[O-])O[C@H]1n1ccc(=O)[nH]c1=O.[Gd+3] [LGd5]	–	–
14.70 mM⁻¹ s⁻¹	12.40 mM⁻¹ s⁻¹	31.90 mM⁻¹ s⁻¹	0.986	6.78 nm	50%	0.50	high	CCCCCCCC(=O)O[C@@H]1[C@H](OC(=O)CCCCCCC)[C@@H](CN(CCN(CC(=O)[O-])CC(=O)[O-])CCN(CC(=O)[O-])CC(=O)[O-])O[C@H]1n1ccc(=O)[nH]c1=O.[Gd+3] [LGd2]	–	–
